Consider 23 compounds from patent US20110218199A1, “PYRIDONEAMIDE DERIVATIVES, THEIR MANUFACTURE AND USE AS PHARMACEUTICAL AGENTS” (priority 2007, published 2011).

Each structure is given as a SMILES string.

The assay deals with HCT 116 cells. Nature of the assay: CellTiter-Glo assay in HCT 116 cells (antiproliferative activity). Type of assay: cell-based. The following applies: Homo sapiens, HCT-116, 120 h, CellTiter-Glo cell viability, HCT 116 human colon carcinoma, 5 days (120 h) incubation. From the text: Antiproliferative Activity:
CellTiter-Glo™ Assay in HCT 116 Cells:
The CellTiter-Glo™ Luminescent Cell Viability Assay (Promega) is a homogeneous method of determining the number of viable cells in culture based on quantitation of the ATP present, which signals the presence of metabolically active cells.
HCT 116 cells (human colon carcinoma, ATCC-No. CCl-247) were cultivated in RPMI 1640 medium with GlutaMAX• I (Invitrogen, Cat-No. 61870-010), 5% Fetal Calf Serum (FCS, Sigma Cat-No. F4135 (FBS)); 100 Units/ml penicillin/100 μg/ml streptomycin (=Pen/Strep from Invitrogen Cat. No. 15140). For the assay the cells were seeded in 384 well plates, 1000 cells per well, in the same medium. The next day the test compounds were added in various concentrations ranging from 30 μM to 0.0015 μM (10 concentrations, 1:3 diluted). After 5 days the CellTiter-Glo™ assay was done according to the instructions of the manufacturer (CellTiter-Glo™ Luminescent Cell Viability Assay, from Promega). In brief: the cell-plate was equilibrated to room temperature for approximately 30 minutes and than the CellTiter-Glo™ reagent was added. The contents were carefully mixed for 15 minutes to induce cell lysis. After 45 minutes the luminescent signal was measured in Victor 2, (scanning multiwell spectrophotometer, Wallac).
1st. Day: • Medium: RPMI 1640 with GlutaMAX™ I (Invitrogen, Cat-Nr. 61870), 5% FCS (Sigma Cat.-No. F4135), Pen/Strep (Invitrogen, Cat No. 15140). • HCT116 (ATCC-No. CC1-247): 1000 cells in 60 μl per well of 384 well plate (Greiner 781098, μClear-plate white) • After seeding incubate plates 24 h at 37° C., 5% CO2
2nd. Day: Induction (Treatment with Compounds, 10 Concentrations):
In order to achieve a final concentration of 30 μM as highest concentration 3.5 μl of 10 mM compound stock solution were added directly to 163 μl media. Then step e) of the dilution procedure described below, was followed.
In order to achieve the second highest to the lowest concentrations, a serial dilution with dilution steps of 1:3 was followed according to the procedure (a-e) as described here below: • a) for the second highest concentration add 10 μl of 10 mM stock solution of compound to 20 μl dimethylsulfoxide (DMSO) • b) dilute 8×1:3 (always 10 μl to 20 μl DMSO) in this DMSO dilution row (results in 9 wells with concentrations from 3333.3 μM to 0.51 μM) • c) dilute each concentration 1: 47.6 (3.5 μl compound dilution to 163 μl media) • d) add 10 μl of every concentration to 60 μl media in the cell plate resulting in final concentration of DMSO: 0.3% in every well and resulting in 10 final concentration of compounds ranging from 30 μM to 0.0015 μM. • Each compound is tested in triplicate. • Incubate 120 h (5 days) at 37° C., 5% CO2 […]
Add 30 μl CellTiter-Glo™ Reagent (prepared from CellTiter-Glo™ Buffer and CellTiter-Glo™ Substrate (lyophilized) purchased from Promega) per well, shake 15 minutes at room temperature incubate further 45 minutes at room temperature without shaking
Victor 2 scanning multiwell spectrophotometer (Wallac), Luminescence mode (0.5 sec/read, 477 nm) Determine IC50 using a non-linear curve fit (XLfit software (ID Business Solution Ltd., Guilford, Surrey, UK))
Background: Cellular ATP, detected with luciferase, serves as a proxy for viable cell number.
As to `O=C(Nc1ccc(N2CCOCC2)c(F)c1)c1c(NCCc2cccc(Cl)c2)cc[nH]c1=O` [Example 2a, 4-[2-(3-Chloro-phenyl)-ethylamino]-2-oxo-1,2-dihydro-pyridine-3-carboxylic acid (3-fluoro-4-morpholin-4-yl-phenyl)-amide], the IC50 (commonly the concentration at which inhibition is half-maximal) was in the range of 500 to 15000 nM.

Compound `O=C(Nc1cccc(N2CCCC2)c1)c1c(NCCc2cccc(Cl)c2)cc[nH]c1=O` [Example 2e, 4-[2-(3-Chloro-phenyl)-ethylamino]-2-oxo-1,2-dihydro-pyridine-3-carboxylic acid (3-pyrrolidin-1-yl-phenyl)-amide] registered an IC50 of 500 to 15000 nM.

The compound `O=C(Nc1ccc(N2CCCC2)c(C(F)(F)F)c1)c1c(NCc2ccccn2)cc[nH]c1=O` [Example 2j, 2-Oxo-4-[(pyridin-2-ylmethyl)-amino]-1,2-dihydro-pyridine-3-carboxylic acid (4-pyrrolidin-1-yl-3-trifluoromethyl-phenyl)-amide] gave an IC50 of 500 to 15000 nM.

Regarding `CN1CCN(c2ccc(NC(=O)c3c(NCc4ccccn4)cc[nH]c3=O)cc2F)CC1` [Example 2k, 2-Oxo-4-[(pyridin-2-ylmethyl)-amino]-1,2-dihydro-pyridine-3-carboxylic acid [3-fluoro-4-(4-methyl-piperazin-1-yl)-phenyl]-amide], the IC50 is 500 to 15000 nM.

Consider `O=C(Nc1cccc(N2CCCCC2)c1)c1c(NCCc2cccc(Cl)c2)cc[nH]c1=O` [Example 2n, 4-[2-(3-Chloro-phenyl)-ethylamino]-2-oxo-1,2-dihydro-pyridine-3-carboxylic acid (3-piperidin-1-yl-phenyl)-amide], for which the IC50 was 500 to 15000 nM.

As to `O=C(Nc1cccc(N2CCCCC2)c1)c1c(NCc2ccccn2)cc[nH]c1=O` [Example 2o, 2-Oxo-4-[(pyridin-2-ylmethyl)-amino]-1,2-dihydro-pyridine-3-carboxylic acid (3-piperidin-1-yl-phenyl)-amide], the IC50 lay within 500 to 15000 nM.

For the compound `CN1CCN(c2ccc(NC(=O)c3c(NC[C@@H](O)c4cccc(Cl)c4)cc[nH]c3=O)cc2)CC1` [Example 2p, 4-[(S)-2-(3-Chloro-phenyl)-2-hydroxy-ethylamino]-2-oxo-1,2-dihydro-pyridine-3-carboxylic acid [4-(4-methyl-piperazin-1-yl)-phenyl]-amide], the IC50 fell in the range of 500 to 15000 nM.

As for `CN1CCN(c2ccc(NC(=O)c3c(NCc4ccccn4)cc[nH]c3=O)cc2)CC1` [Example 2s, 2-Oxo-4-[(pyridin-2-ylmethyl)-amino]-1,2-dihydro-pyridine-3-carboxylic acid [4-(4-methyl-piperazin-1-yl)-phenyl]-amide], the IC50 lay in the range of 500 to 15000 nM.

Regarding `CN(C)c1cccc(NC(=O)c2c(NC[C@@H](O)c3cccc(Cl)c3)cc[nH]c2=O)c1` [Example 2w, 4-[(S)-2-(3-Chloro-phenyl)-2-hydroxy-ethylamino]-2-oxo-1,2-dihydro-pyridine-3-carboxylic acid (3-dimethylamino-phenyl)-amide], the IC50 fell in the range of 500 to 15000 nM.

Compound `CC(=O)N1CCN(c2ccc(NC(=O)c3c(NCC(O)c4ccccc4)cc[nH]c3=O)cc2C(F)(F)F)CC1` (centres unmarked) [Example 3, 4-(2-Hydroxy-2-phenyl-ethylamino)-2-oxo-1,2-dihydro-pyridine-3-carboxylic acid[4-(4-acetyl-piperazin-1-yl)-3-trifluoromethyl-phenyl]-amide] yielded an IC50 of 500 to 15000 nM.

`CN1CCN(c2ccc(NC(=O)c3c(NCCc4cccc(Cl)c4)cc[nH]c3=O)cc2F)CC1` [Example 4a, 4-[2-(3-Chloro-phenyl)-ethylamino]-2-oxo-1,2-dihydro-pyridine-3-carboxylic acid [3-fluoro-4-(4-methyl-piperazin-1-yl)-phenyl]-amide]: the IC50 was in the range of 500 to 15000 nM.

The compound `Cc1cccc(CCNc2cc[nH]c(=O)c2C(=O)Nc2cccc(N3CCN(C)CC3)c2)c1` [Example 4aa, 2-Oxo-4-(2-m-tolyl-ethylamino)-1,2-dihydro-pyridine-3-carboxylic acid [3-(4-methyl-piperazin-1-yl)-phenyl]-amide] had an IC50 of 500 to 15000 nM.

In the case of `COc1ccccc1CCNc1cc[nH]c(=O)c1C(=O)Nc1cccc(N2CCN(C)CC2)c1` [Example 4ab, 4-[2-(2-Methoxy-phenyl)-ethylamino]-2-oxo-1,2-dihydro-pyridine-3-carboxylic acid [3-(4-methyl-piperazin-1-yl)-phenyl]-amide], the IC50 lay in the range of 500 to 15000 nM.

In turn, `CN1CCN(c2cccc(NC(=O)c3c(NCCc4c[nH]c5ccccc45)cc[nH]c3=O)c2)CC1` [Example 4ae, 4-[2-(1H-Indol-3-yl)-ethylamino]-2-ozo-1,2-dihydro-pyridine-3-carboxylic acid [3-(4-methyl-piperazin-1-yl)-phenyl]-amide] had an IC50 of 500 to 15000 nM.

Consider `CN1CCN(c2ccc(NC(=O)c3c(NCCc4cccc(Cl)c4)cc[nH]c3=O)cc2)CC1` [Example 4b, 4-[2-(3-Chloro-phenyl)-ethylamino]-2-oxo-1,2-dihydro-pyridine-3-carboxylic acid [4-(4-methyl-piperazin-1-yl)-phenyl]-amide], for which the IC50 is 500 to 15000 nM.

`CN1CCN(c2ccc(NC(=O)c3c(NC[C@@H](O)c4ccccc4)cc[nH]c3=O)cc2F)CC1` [Example 4c, 4-[(S)-2-Hydroxy-2-phenyl-ethylamino]-2-oxo-1,2-dihydro-pyridine-3-carboxylic acid [3-fluoro-4-(4-methyl-piperazin-1-yl)-phenyl]-amide] returned an IC50 of 500 to 15000 nM.

In turn, `CC(=O)N1CCN(c2ccc(NC(=O)c3c(NC[C@@H](O)c4cccc(Cl)c4)cc[nH]c3=O)cc2C(F)(F)F)CC1` [Example 4d, 4-[(S)-2-(3-Chloro-phenyl)-2-hydroxy-ethylamino]-2-oxo-1,2-dihydro-pyridine-3-carboxylic acid [4-(4-acetyl-piperazin-1-yl)-3-trifluoromethyl-phenyl]-amide] registered an IC50 of 1250 nM.

`COc1ccc(NC(=O)c2c(NC[C@@H](O)c3cccc(Cl)c3)cc[nH]c2=O)cc1N1CCN(C)CC1` [Example 4i, 4-[(S)-2-(3-Chloro-phenyl)-2-hydroxy-ethylamino]-2-oxo-1,2-dihydro-pyridine-3-carboxylic acid [4-methoxy-3-(4-methyl-piperazin-1-yl)-phenyl]-amide] returned an IC50 of 500 to 15000 nM.

`O=C(Nc1cccc(N2CCOCC2)c1)c1c(NC[C@@H](O)c2cccc(Cl)c2)cc[nH]c1=O` [Example 4m, 4-[(S)-2-(3-Chloro-phenyl)-2-hydroxy-ethylamino]-2-oxo-1,2-dihydro-pyridine-3-carboxylic acid (3-morpholin-4-yl-phenyl)-amide]: the IC50 was in the range of 500 to 15000 nM.

In the case of `CS(=O)(=O)c1cccc(NC(=O)c2c(NC[C@@H](O)c3cccc(Cl)c3)cc[nH]c2=O)c1` [Example 4p, 4-[(S)-2-(3-Chloro-phenyl)-2-hydroxy-ethylamino]-2-oxo-1,2-dihydro-pyridine-3-carboxylic acid (3-methanesulfonyl-phenyl)-amide], the IC50 fell in the range of 500 to 15000 nM.

In turn, `CSc1cccc(NC(=O)c2c(NC[C@@H](O)c3cccc(Cl)c3)cc[nH]c2=O)c1` [Example 4q, 4-[(S)-2-(3-Chloro-phenyl)-2-hydroxy-ethylamino]-2-oxo-1,2-dihydro-pyridine-3-carboxylic acid (3-methylsulfanyl-phenyl)-amide] came in with an IC50 of 500 to 15000 nM.

In turn, `CN1CCN(c2cccc(NC(=O)c3c(NCCc4ccccc4)cc[nH]c3=O)c2)CC1` [Example 4v, 2-Oxo-4-phenethylamino-1,2-dihydro-pyridine-3-carboxylic acid [3-(4-methyl-piperazin-1-yl)-phenyl]-amide] gave an IC50 of 500 to 15000 nM.

Compound `COc1cccc(CCNc2cc[nH]c(=O)c2C(=O)Nc2cccc(N3CCN(C)CC3)c2)c1` [Example 4y, 4-[2-(3-Methoxy-phenyl)-ethylamino]-2-oxo-1,2-dihydro-pyridine-3-carboxylic acid [3-(4-methyl-piperazin-1-yl)-phenyl]-amide] returned an IC50 of 500 to 15000 nM.
